Measurements taken from patent publication US20010046704A1, “Methods and compositions to activate genes in cells” (priority 2000, published 2001).

Tests used:
mouse ES stem cells = assay: Chemical mutagenesis of cell suspensions, cytotoxicity of the mutagen; assay type: cell-based; details: cell suspensions (eg, mouse ES stem cells) exposed to doses as high as 0.4 mg/mL for 2 to 3 hours
Excerpt: In this regard, numerous chemical mutagens have been described and used in the past, as described for instance by Russell et al., Biology of Mammalian Germ Cell Mutagenesis, Cold Spring Harbor Laboratory Press, 1990:271-285; Rinchik E. M., Trends in Genetics, 1991;7(1):15-21; or Marker et al., Genetics, 1997;145(2):435-443. For mutagenesis, cells are preferably treated with increasing amounts of the chemical mutagen(s) either in whole animals or in cell suspensions, to assess the cytotoxicity of the chemical mutagen(s). Typical doses have been described in the literature as cited above. For example, cell suspensions (eg, mouse ES stem cells) are exposed to doses of N-ethyl-N-nitrosourea (ENU) as high as 0.4 mg/mL for 2 to 3 hours, which results in more than 98% of the cells dying. […] Other mutagens include for instance intercalating agents, alkylating agents, strand breaking agents, mismatch-inducing agents, etc.

DNA = details: compared with other mutagenic agents; cited from earlier work

In the case of `CCN(N=O)C(N)=O` [ENU, N-ethyl-N-nitrosourea], the cells dying (mouse ES stem cells) is listed as “more than 98%” and the “efficiency in generating mutations relative to other agents” value (DNA) is listed as “at least 10 times”.
